Laboratory results from patent publication US10702506B2, “Small molecule inhibitors of pendrin ion exchange and pharmaceutical compositions” (THE REGENTS OF THE UNIVERSITY OF CALIFORNIA, priority 2016, dated 2020).

Molecular target: T1, pendrin (Mus musculus, UniProt Q9R155)
T1 sequence (Q9R155 1-780): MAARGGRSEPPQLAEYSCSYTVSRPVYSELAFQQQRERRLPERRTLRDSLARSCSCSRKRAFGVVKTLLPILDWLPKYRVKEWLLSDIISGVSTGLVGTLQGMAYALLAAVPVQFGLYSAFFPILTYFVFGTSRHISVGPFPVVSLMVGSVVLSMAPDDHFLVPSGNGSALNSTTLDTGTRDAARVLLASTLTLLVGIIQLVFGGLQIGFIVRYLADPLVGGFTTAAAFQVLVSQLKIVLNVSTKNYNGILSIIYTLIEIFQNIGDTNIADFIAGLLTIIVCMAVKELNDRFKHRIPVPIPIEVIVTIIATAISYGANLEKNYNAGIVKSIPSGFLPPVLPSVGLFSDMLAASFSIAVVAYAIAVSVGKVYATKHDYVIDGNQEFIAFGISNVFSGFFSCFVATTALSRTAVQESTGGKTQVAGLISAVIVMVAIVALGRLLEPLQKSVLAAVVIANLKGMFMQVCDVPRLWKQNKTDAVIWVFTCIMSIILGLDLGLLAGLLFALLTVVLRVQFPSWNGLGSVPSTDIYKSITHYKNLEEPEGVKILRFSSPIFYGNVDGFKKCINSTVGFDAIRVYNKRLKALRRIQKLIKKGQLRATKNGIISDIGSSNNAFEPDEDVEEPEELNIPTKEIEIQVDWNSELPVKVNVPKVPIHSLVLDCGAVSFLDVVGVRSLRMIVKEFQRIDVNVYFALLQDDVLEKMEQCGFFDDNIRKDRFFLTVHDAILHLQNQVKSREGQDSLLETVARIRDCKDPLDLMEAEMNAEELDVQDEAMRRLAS
Test: In vitro measurement of furosemide effect on pendrin activity
Settings: not given

| effect on pendrin activity | SMILES |
| --- | --- |
| no effect | NS(=O)(=O)c1cc(C(=O)O)c(NCc2ccco2)cc1Cl [furosemide] |

Molecular target: T2, pendrin (Homo sapiens, UniProt O43511)
T2 sequence (O43511 1-780): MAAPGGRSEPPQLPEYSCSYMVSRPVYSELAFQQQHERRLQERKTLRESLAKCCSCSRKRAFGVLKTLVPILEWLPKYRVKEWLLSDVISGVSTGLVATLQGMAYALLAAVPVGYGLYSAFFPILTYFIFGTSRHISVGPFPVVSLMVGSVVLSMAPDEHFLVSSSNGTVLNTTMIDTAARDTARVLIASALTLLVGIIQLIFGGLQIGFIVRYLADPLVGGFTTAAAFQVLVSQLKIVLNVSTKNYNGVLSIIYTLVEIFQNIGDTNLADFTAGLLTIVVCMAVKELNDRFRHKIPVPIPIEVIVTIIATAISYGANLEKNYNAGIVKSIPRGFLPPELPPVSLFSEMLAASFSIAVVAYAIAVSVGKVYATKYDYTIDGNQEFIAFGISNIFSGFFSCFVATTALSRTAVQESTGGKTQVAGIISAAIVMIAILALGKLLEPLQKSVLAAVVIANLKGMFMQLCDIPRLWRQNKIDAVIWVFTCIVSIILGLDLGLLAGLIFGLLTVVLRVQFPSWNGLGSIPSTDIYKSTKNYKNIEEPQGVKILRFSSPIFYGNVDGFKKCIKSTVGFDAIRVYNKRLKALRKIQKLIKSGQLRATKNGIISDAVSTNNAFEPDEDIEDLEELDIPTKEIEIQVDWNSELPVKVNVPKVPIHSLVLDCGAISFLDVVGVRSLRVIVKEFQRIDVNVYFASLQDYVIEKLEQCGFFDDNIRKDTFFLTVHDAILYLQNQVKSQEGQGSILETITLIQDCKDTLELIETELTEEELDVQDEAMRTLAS
Test: YFP (EYFP-HIF) fluorescence quenching assay of pendrin-mediated Cl− exchange (SCN−, I−, NO3−) in FRT cells; high-throughput screen
Assay type: cell-based
Design: expressed in transfected cells
Settings: FRT, 25 μM; read-out: Inh. (%), percentage inhibition of human pendrin
Protocol: Fischer rat thyroid (FRT) cells were cultured in Kaign's modified Ham's F12 medium supplemented with 10% FBS, 2 mM L-glutamine, 100 U/ml penicillin, […], […] myo-inositol and […] ascorbic acid. For high-throughput screening, FRT cells were stably transfected with EYFP-H148Q/I152L/F46L (EYFP-HIF; in pcDNA3.1/Hygro (+)), isolated using 0.25 mg/ml hygromycin B, and then transfected with pcDNA3.1 (+) encoding human pendrin with clonal cell lines selected using 0.5 mg/ml G418.
High-throughput screening was performed using a semi-automated screening platform (Beckman, Fullerton, Calif.) configured as described. FRT cells expressing human pendrin and EYFP-HIF were plated in 96-well black-walled, clear-bottom tissue culture plates (Corning, Corning, N.Y.) at a density of 20,000 cells/well, and cultured to confluence over 48 h. For screening, plates were washed twice with PBS (in mM: 137 NaCl, 2.7 KCl, 1.1 KH2PO4, 8.1 Na2HPO4, 0.9 CaCl2), 0.5 MgCl2) prior to addition of 100 μl PBS containing test compounds. Screening was done with ˜36,000 compounds from ChemDiv (San Diego, Calif.), TimTec (Newark, Del.), and Asinex (Winston-Salem, N.C.). After 10 min incubation with test compound, plates were transferred to a Tecan Infinite M1000 plate reader (Tecan, Morrisville, N.C.) for fluorescence assay of pendrin activity. The assay duration was 10 s with initial fluorescence intensity recorded for 2 s prior to addition of 100 μl of NaSCN-substituted PBS (137 mM NaCl replaced with NaSCN). All assay plates contained negative controls (DMSO). In some experiments Cl^− exchange for I^− or NO3^− was measured similarly using NaI and NaNO3-substituted PBS. Control experiments to measure basal ion transport rates were done in FRT cells expressing EYFP-HIF without pendrin.
FRT cells were chosen for screening due to their low intrinsic permeability to anions that are transported by pendrin. As depicted in FIGS. 1A and 2A, pendrin activity was assayed from the kinetics of the halide-sensitive fluorescent protein EYFP-HIF in response to addition of a SCN^−-containing solution to drive pendrin-mediated Cl^−/SCN^−. Pendrin inhibition reduces the rate of EYFP-HIF quenching. PDSinh-A01 land PDSinh-C01 decreased pendrin-mediated Cl^−/SCN^− and Cl^−/I^− exchange in a concentration-dependent manner, as measured by YFP fluorescence quenching. […] Because the only previously-described pendrin inhibitor is the weakly active compound niflumic acid, no positive control was included in the screening plates.

| inhibition at 25 µM | SMILES |
| --- | --- |
| 77% | CSc1ccc(NC(=O)N2CCc3c(c(COc4ccccc4)nn3C)C2)cc1 |
| 72% | Cn1nc(COc2ccccc2)c2c1CCN(C(=O)Nc1ccc(Cl)cc1)C2 |
| 69% | COc1ccc(NC(=O)N2CCc3c(c(COc4ccccc4)nn3C)C2)cc1F |
| 66% | Cn1nc(COc2ccc(F)cc2)c2c1CCN(C(=O)Nc1ccc(Cl)cc1)C2 |
| 64% | Cc1ccc(NC(=O)N2CCc3c(c(COc4ccccc4)nn3C)C2)cc1C |
| 61% | Cc1ccc(NC(=O)N2CCc3c(c(COc4ccccc4)nn3C)C2)cc1 |
| 61% | Cc1ccc(NC(=O)N2CCc3c(c(COc4ccc(F)cc4)nn3C)C2)cc1Cl |
| 58% | Cc1ccc(NC(=O)N2CCc3c(c(COc4ccc(F)cc4)nn3C)C2)cc1C |
| 60% | Cn1nc(COc2cccc(F)c2)c2c1CCN(C(=O)Nc1cccc(Cl)c1)C2 |
| 57% | Cn1nc(COc2ccc(F)cc2)c2c1CCN(C(=O)Nc1cccc(C(F)(F)F)c1)C2 |
| 54% | CCc1ccc(NC(=O)N2CCc3c(c(COc4ccccc4)nn3C)C2)cc1 |
| 54% | Cn1nc(COc2ccc(F)cc2)c2c1CCN(C(=O)Nc1ccc(F)c(Cl)c1)C2 |
| 53% | COc1ccc(NC(=O)N2CCc3c(c(COc4ccc(F)cc4)nn3C)C2)cc1F |
| 45% | CSc1cccc(NC(=O)N2CCc3c(c(COc4ccccc4)nn3C)C2)c1 |
| 49% | Cc1ccc(NC(=O)N2CCc3c(c(COCc4cccc(F)c4)nn3C)C2)cc1Cl |
| 48% | Cc1ccc(NC(=O)N2CCc3c(c(COCc4ccc(F)cc4Cl)nn3C)C2)cc1C |
| 49% | CCc1ccc(NC(=O)N2CCc3c(c(COCc4ccc(F)cc4Cl)nn3C)C2)cc1 |
| 49% | Cc1ccc(NC(=O)N2CCc3c(c(COCc4ccc(Cl)cc4)nn3C)C2)cc1C |
| 53% | Cc1cc(-c2cc(S(=O)(=O)NC3CCCc4ccccc43)c(C)s2)[nH]n1 (centres unmarked) |
